Target: enoyl acyl carrier protein reductase (InhA) (Mycobacterium tuberculosis, UniProt P9WGR1)
Test: InhA enzyme inhibition assay
Format: biochemical

Chain of enoyl acyl carrier protein reductase (InhA) (P9WGR1 whole entry, looked up): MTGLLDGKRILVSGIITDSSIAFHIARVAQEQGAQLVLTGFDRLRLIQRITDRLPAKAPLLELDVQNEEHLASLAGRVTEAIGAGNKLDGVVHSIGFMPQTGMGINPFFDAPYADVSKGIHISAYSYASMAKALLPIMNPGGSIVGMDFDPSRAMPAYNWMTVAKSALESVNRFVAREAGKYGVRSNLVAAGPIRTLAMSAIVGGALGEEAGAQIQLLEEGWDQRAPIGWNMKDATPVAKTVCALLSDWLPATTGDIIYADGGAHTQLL

O=c1cc(-c2ccccc2)c2cc(Cl)c(OCc3nnn(CCN4CCOCC4)n3)cc2o1 [4c, 7-((2-(2-Morpholinoethyl)-2H-tetrazol-5-yl)methoxy)-6-chloro-4-phenyl-2H-chromen-2-one]
IC50: 565 ± 20 nM
